Measured values: patent publication US9801371B2, “Self-assembling polymer particle release system” (priority 2010, dated 2017)
“And” between values parts separate entries of the source, which are not always exact repeats. Equal entries are not always repeated. Where two headings read alike, the source gives them in different places.

Key:
[1] = cited from earlier work
[2] = Filter paper test: ten 10-ml water washings, UV analysis of AI washed through; assay type: physicochemical; conditions: for mobility on filter paper or soil: washed with several 10 ml aliquots of water; for R (rating factor, number of washings to deplete the AI): ten 10-ml water washings
Text: All of the polymers in this set of experiments were combined with the AI at a 70% AI by weight to 30% polymer by weight concentrations. […] The filter paper samples were applied to a slightly wet Buchner funnel to set the paper evenly and then ten 10-ml aliquots of de-ionized (DI) water were suctioned through the filter paper. Ultraviolet light (UV) analysis for each of the 10-ml fractions was used to determine the absorption of the AI (264 nm) washed through the filter paper and recorded as absorption versus each individual 10-ml wash.
The control for these systems was evaluated by placing methylene chloride solutions of the AI alone or the polymer alone onto the filter paper, drying overnight, and washing with ten 10-ml aliquots of DI water.
The AI was dry ground (mortar and pestle) with urea-formaldehyde flower foam as the cage material [commercial product (Foliage Fresh)] where the ratio of AI to flower foam was 70%/30% by weight. This mixture then was tumbled-coated with an organic solvent solution of a hydrophobic polymer (paraffin wax/hexane; polystyrene/toluene; silicone oil/toluene) in a round bottom flask. […] Small amounts (0.07 g) of the powder were placed on the filter paper and subsequently washed with ten 10-ml aliquots of DI water and analyzed in a similar manner as previously described.
Liquid samples of the AI-polymer combinations and AI control samples were applied to filter paper (Whatman #2) and dried for 24 hours at room temperature. The filter paper containing the AI-polymer combination or the AI control samples were placed in a Buchner funnel under water aspiration vacuum conditions, while ten 10-ml aliquots of water were applied to the top of the filter paper containing the AI-polymer or AI control material, which was then sucked through the filter paper and collected in the receiving flask that holds the funnel-vacuum attachment.
After each 10-ml aliquot of water was suctioned through the filter paper containing the sample, the suctioned solution then was removed and analyzed with a UV spectrometer for any AI that went through the water washing process. The ten 10-ml sequential washings were a simulation of how an AI applied to soil would remain on the soil and migrate through the soil under a rain environmental exposure condition.
Dry 100% solid samples were placed on the filter paper directly and subsequently washed with ten 10-ml aliquots in a similar manner as the liquid samples that were dried after placement on the filter paper.
Various concentrations of the AI's were dissolved in water or water and a co-solvent and analyzed at 254 nm or other UV/visible regions of the spectrum in order to establish a standard calibration curve of absorbance versus AI concentration.

[3] = Table 26, USDA Pesticide Properties Database

O=C(Nc1nc(OC(F)F)cc(OC(F)F)n1)NS(=O)(=O)c1ccccc1C(=O)O [Primisulfuron]
KOC ([1]; Tables 21-25): 50

COc1nc(C)nc(NC(=O)NS(=O)(=O)c2ccccc2Cl)n1 [Chlorsulfuron]
KOC ([1]; Tables 21-25): 36.3

Cc1ccn2nc(S(=O)(=O)Nc3c(F)cccc3F)nc2n1 [Flumetsulam]
KOC ([1]; Tables 21-25): 28

COC(=O)c1ccccc1S(=O)(=O)NC(=O)N(C)c1nc(C)nc(OC)n1 [Tribenuron-Methyl]
KOC ([1]; Tables 21-25): 31

COC(=O)c1ccccc1S(=O)(=O)NC(=O)Nc1nc(C)cc(C)n1 [Sulfometuron-Methyl]
KOC ([1]; Tables 21-25): 85

CSc1nc(NC(C)C)nc(NC(C)C)n1 [Prometryn]
KOC ([1]; Tables 21-25): 400

Clc1nc(Cl)nc(Nc2ccccc2Cl)n1 [Anilazine]
KOC ([1]; Tables 21-25): 2000

CCc1cnc(C2=NC(C)(C(C)C)C(=O)N2)c(C(=O)O)c1 (stereo not shown) [Imazethapyr]
KOC ([1]; Tables 21-25): 52

CCCSP(=O)(OCC)Oc1ccc(Br)cc1Cl (stereo not shown) [Profenofos]
KOC ([1]; Tables 21-25): 2016

Nc1c(Cl)c(Cl)nc(C(=O)O)c1Cl [Picloram]
KOC ([1]; Tables 21-25): 35

CCS(=O)(=O)c1cccnc1S(=O)(=O)NC(=O)Nc1nc(OC)cc(OC)n1 [Rimsulfuron]
KOC ([1]; Tables 21-25): 47

CCOP(=S)(OCC)SCCSCC [Disulfuton]
KOC ([1]; Tables 21-25): 13454

CCNc1nc(NC(C)C)nc(SC)n1 [Ametryn]
KOC ([1]; Tables 21-25): 316

CCCC1COC(Cn2cncn2)(c2ccc(Cl)cc2Cl)O1 (stereo not shown) [Propiconazole]
KOC ([1]; Tables 21-25): 1086

CCOC(=O)c1ccccc1S(=O)(=O)NC(=O)Nc1nc(Cl)cc(OC)n1 [Chlorimuron-Ethyl]
KOC ([1]; Tables 21-25): 106

CC(C)c1ccc(NC(=O)N(C)C)cc1 [Isoproturon]
KOC ([1]; Tables 21-25): 122

O=C(O)c1c(Cl)ccc2cc(Cl)cnc12 [Quinclorac]
KOC ([1]; Tables 21-25): 50

CCCOP(=S)(OCCC)SCC(=O)N1CCCCC1C (stereo not shown) [Piperophos]
KOC ([1]; Tables 21-25): 5202

CC(C)C1(C)N=C(c2nc3ccccc3cc2C(=O)O)NC1=O (stereo not shown) [Imazaquin]
KOC ([1]; Tables 21-25): 18

CCOP(=S)(OCC)Oc1nc(Cl)c(Cl)cc1Cl [Chlorpyrifos]
KOC [1, 3]: 6,000 mg/g

CC(C)Nc1nc(Cl)nc(NC(C)C)n1 [Propazine]
KOC ([1]; Tables 21-25): 154

CCOP(=S)(OCC)OC(Cl)C(Cl)(Cl)Cl (stereo not shown) [Chlorethoxyfos]
KOC ([1]; Tables 21-25): 6100

O=C(O)Cc1cccc2ccccc12 [1-Napthylacetic Acid]
KOC ([1]; Tables 21-25): 385

COP(=O)(OC)O/C(C)=C/C(=O)N(C)C [Dicrotophos]
KOC ([1]; Tables 21-25): 75

CNC(=O)CSP(=S)(OC)OC [Dimethonate]
KOC ([1]; Tables 21-25): 30

COP(=S)(OC)Oc1cc(Cl)c(I)cc1Cl [Iodufenphos]
KOC ([1]; Tables 21-25): 50000

CCOP(=S)(OCC)Oc1nc(Cl)n(C(C)C)n1 [Isazofos]
KOC ([1]; Tables 21-25): 155

COP(=S)(OC)Oc1ccc(SC)c(C)c1 [Fenthion]
KOC ([1]; Tables 21-25): 1500

CCOP(=S)(OCC)Oc1cc(C)nc(C(C)C)n1 [Diazinon]
KOC [1, 3]: 1000 mg/g

CCOP(=S)(OCC)SCSC(C)(C)C [Terbufos]
KOC [1, 3]: 500 mg/g

CC(C)N.O=C(O)COc1ccc(Cl)cc1Cl [2,4-D Amine Salt (Control)]
R Values ([2]; R line of the washing table, filter paper): 2 | % released ([2]; washing 1, sample applied to filter paper and dried): 94% | % released ([2]; washing 2, sample applied to filter paper and dried): 6% | % released ([2]; washing 4, sample applied to filter paper and dried): 0% | % released ([2]; washing 5, sample applied to filter paper and dried): 0% | % released ([2]; washing 6, sample applied to filter paper and dried): 0% | % released ([2]; washing 7, sample applied to filter paper and dried): 0% | % released ([2]; washing 8, sample applied to filter paper and dried): 0% | % released ([2]; washing 9, sample applied to filter paper and dried): 0% | % released ([2]; washing 10, * = not all of the sample was released after 10 washings): 0% | % released ([2]; washing 33, sample applied to filter paper and dried): 0%

Cc1nn(-c2cc(NS(C)(=O)=O)c(Cl)cc2Cl)c(=O)n1C(F)F [Sulfentrazone]
KOC ([1]; Tables 21-25): 43

CC(C)(C)C(O)C(Oc1ccc(Cl)cc1)n1cncn1 (stereo not shown) [Triadimenol]
KOC ([1]; Tables 21-25): 273

CCOP(=S)(OCC)SCSCC [Phorate]
KOC ([1]; Tables 21-25): 1660

CC(COc1ccc(Oc2ccccc2)cc1)Oc1ccccn1 (stereo not shown) [Pyriproxyfen]
% released ([2]; filter paper/soil release system, washing 1 (first line)): 0% | % released ([2]; filter paper/soil release system, washing 3): 0% | % released ([2]; filter paper/soil release system, washing printed 1 (second line)): 0% | mobility on filter paper or soil [2]: no mobility | mobility on filter paper or soil ([2]; listed as PPF): did not move with any of the water washes | Koc ([1]; clay-loam soils): 58,000

COc1nc(NC(C)C)nc(NC(C)C)n1 [Prometon]
KOC ([1]; Tables 21-25): 150

CCNc1nc(NC(C)(C)C)nc(SC)n1 [Terbutryn]
KOC ([1]; Tables 21-25): 2000

CC(C)C1(C)N=C(c2ncccc2C(=O)O)NC1=O (stereo not shown) [Imazapyr]
% released ([2]; filter paper, 10-ml water washing 1, listed as AI Control): 49% | % released ([2]; filter paper, 10-ml water washing 1, listed as IMI Acid): 41% | % released ([2]; filter paper, 10-ml water washing 1, listed as IMI acid alone): 28% | % released ([2]; filter paper, 10-ml water washing 2, listed as AI Control): 47% and 49% | % released ([2]; filter paper, 10-ml water washing 2, listed as IMI Acid): 39% and 37% | % released ([2]; filter paper, 10-ml water washing 2, listed as IMI acid alone): 30% | % released ([2]; filter paper, 10-ml water washing 3, listed as AI Control): 4% and 2% | % released ([2]; filter paper, 10-ml water washing 3, listed as IMI Acid): 14% | % released ([2]; filter paper, 10-ml water washing 3, listed as IMI acid alone): 25% | % released ([2]; filter paper, 10-ml water washing 4, listed as AI Control): 0% | % released ([2]; filter paper, 10-ml water washing 4, listed as IMI Acid): 6% and 5% | % released ([2]; filter paper, 10-ml water washing 4, listed as IMI acid alone): 13% | % released ([2]; filter paper, 10-ml water washing 5, listed as AI Control): 0% | % released ([2]; filter paper, 10-ml water washing 5, listed as IMI Acid): 0% | % released ([2]; filter paper, 10-ml water washing 5, listed as IMI acid alone): 4% | % released ([2]; filter paper, 10-ml water washing 6): 0% | % released ([2]; filter paper, 10-ml water washing 7): 0% | % released ([2]; filter paper, 10-ml water washing 8): 0% | % released ([2]; filter paper, 10-ml water washing 9): 0% | % released ([2]; filter paper, 10-ml water washing 10, * = not all released after 10 washings): 0% | R (rating factor, number of washings to deplete the AI) ([2]; filter paper, listed as AI Control): 3 | R (rating factor, number of washings to deplete the AI) ([2]; filter paper, listed as AI control): 3 | R (rating factor, number of washings to deplete the AI) ([2]; filter paper, listed as IMI Acid): 4 | R (rating factor, number of washings to deplete the AI) ([2]; filter paper, listed as IMI acid alone): 5

CCNc1nc(Cl)nc(NCC)n1 [Simazine]
KOC ([1]; Tables 21-25): 130

CCOP(=S)(OCC)Oc1ccc([N+](=O)[O-])cc1 [Parathion]
KOC ([1]; Tables 21-25): 7660

CN(C)C(=O)Nc1ccc(Cl)c(Cl)c1 [Diuron]
KOC ([1]; Tables 21-25): 1067

COC(=O)c1cccc(C)c1S(=O)(=O)NC(=O)Nc1nc(OCC(F)(F)F)nc(N(C)C)n1 [Triflusulfuron-Methyl]
KOC ([1]; Tables 21-25): 40

CC1CCCCC1NC(=O)Nc1ccccc1 (stereo not shown) [Siduron]
KOC ([1]; Tables 21-25): 420

O=C(NC(=O)c1c(F)cccc1F)Nc1cc(Cl)c(OC(F)(F)C(F)C(F)(F)F)cc1Cl (stereo not shown) [Lufenuron]
KOC ([1]; Tables 21-25): 41182

COc1cc(OC)nc(NC(=O)NS(=O)(=O)c2ncccc2C(=O)N(C)C)n1 [Nicosulfuron]
KOC ([1]; Tables 21-25): 21

CN(C)c1nc(=O)n(C2CCCCC2)c(=O)n1C [Hezazinone]
KOC ([1]; Tables 21-25): 54

CN(C)C(=O)Nc1cccc(C(F)(F)F)c1 [Fluometuron]
KOC ([1]; Tables 21-25): 67.4

CCNc1nc(Cl)nc(NC(C)C)n1 [Atrazine]
KOC ([1]; Tables 21-25): 100

Cc1cccc2sc3nncn3c12 [Tricyclazole]
KOC ([1]; Tables 21-25): 169

CN(C)C(=O)Nc1ccc(Cl)cc1 [Monuron]
KOC ([1]; Tables 21-25): 150

COP(=S)(OC)SCn1nnc2ccccc2c1=O [Azinphosmethyl]
KOC ([1]; Tables 21-25): 1000

CNC(=O)N(C)c1nnc(C(C)(C)C)s1 [Tebuthiuron]
KOC [1, 3]: 80 mg/g

CS(=O)(=O)NC(=O)c1cc(Oc2ccc(C(F)(F)F)cc2Cl)ccc1[N+](=O)[O-] [Fomesafen]
KOC ([1]; Tables 21-25): 50

CCNc1nc(Cl)nc(NC(C)(C)C#N)n1 [Cyanazine]
KOC ([1]; Tables 21-25): 190

O=C(Nc1ccccc1)Nc1cnns1 [Thidiazuron]
KOC ([1]; Tables 21-25): 742

C[n+]1ccc(-c2cc[n+](C)cc2)cc1 [Paraquat]
KOC [1, 3]: 1,000,000 mg/g
